Laboratory results reported in patent publication US5650394A, “Use of urinastatin-like compounds to prevent premature delivery” (Adeza Biomedical, priority 1993, dated 1997).

B1: urinastatin (protein, UniProt P02760 206-352, looked up)
Inter-alpha-trypsin inhibitor …: AVLPQEEEGSGGGQLVTEVTKKEDSCQLGYSAGPCMGMTSRYFYNGTSMACETFQYGGCMGNGNNFVTEKECLQTCRTVAACNLPIVRGPCRAFIQLWAFDAVKGKCVLFPYGGCQGNGNKFYSEKECREYCGVPGDGDEELLRFSN
modifications: Inter-alpha-trypsin inhibitor light chain
notes: glycoprotein of less than about 67 kD purified from human urine

Assays:
[1] = cited from earlier work; for time required for the number of uterine contractions (UC) to decrease to less than 1 per 30 minutes: 24th-35th weeks of pregnancy, tocolysis index 3-4, no PROM
[2] = Example 2 clinical comparison of regimens in 168 patients with imminent premature delivery; format: in vivo, human
Procedure: 168 patients in their 24th to 35 week of pregnancy were diagnosed with imminent premature delivery. The diagnosis of imminent premature delivery was based on a tocolysis index of 2 or greater. Factors of cervical dilation, ruptured membranes, uterine activity and vaginal bleeding were considered for the tocolysis index. The index is the sum of these points.
A number of regimens were compared. Group 1 received ritodrine intravenous infusion at 50-300 μg per day. Groups 2 and 3 were given daily urinastatin suppositories containing 5000 units and 1000 units, respectively. Group 4 received IV ritodrine at 50-300 μg per day and one 1000 unit urinastatin suppository per day. Group 5 received IV ritodrine at 50-300 μg per day, one 1000 unit urinastatin suppository per day, and cephalosporin. The patients were treated until they delivered.
The tocolysis index immediately before the start of treatment varied from 2-8. Elastase levels obtained from specimen of endocervical secretions were determined at admission to the study. "Hours to Neg UA", or the time until the number of uterine contractions in 30 minutes decreased to one or less, was reported. "Recur UA", or the proportion of women experiencing recurrence of at least one uterine contraction every 30 minutes after therapy lasting 4 days or longer was discontinued also was observed. "EGA Toco" is the estimated gestational age at the beginning of therapy. "EGA Del" is the estimated gestational age at delivery. The "interval" is the number of weeks between EGA Toco and EGA Del. "PTD<37 Wks" is the number of preterm births before 37 weeks. "PTD<34 Wks" is the number of preterm births before 34 weeks, or seriously premature infants.

[3] = system: granulocyte elastase; conditions: patients treated with urinastatin (groups B, C and D); cited from earlier work

| Molecule | patients with recurrence of UC after therapy was discontinued ([1]; therapy discontinued when UC had been depressed for 4 days) | time required for the number of uterine contractions (UC) to decrease to less than 1 per 30 minutes ([1]; women) | women with premature deliveries ([1]; women, 24th-35th weeks, tocolysis index 3-4) [%] | preterm deliveries of less than 34 wk, share of all deliveries ([2]; PTD<34 Wks) | preterm deliveries of less than 37 wk, share of all deliveries ([2]; PTD<37 Wks) [%] | rate of recurrence of uterine activity ([2]; in spite of continuous administration of the drug) | Hours to Neg UA: time until uterine contractions in 30 minutes decreased to one or less ([2]; study average 3.1 hr) [h] | elastase in vaginal secretions [3] | premature deliveries (number of patients) ([1]; groups B and D had 9 and 8 patients, group C 14) |
| --- | --- | --- | --- | --- | --- | --- | --- | --- | --- |
| CC(NCCc1ccc(O)cc1)C(O)c1ccc(O)cc1 (stereo not shown) [ritodrine] | Approximately 60% | about an hour | 25 | approximately 21% | ~42 | over 30% | 1.4 |  |  |
| B1 |  | about 6 hours |  |  |  |  |  | decreased | no premature deliveries |
